From the supplement of paper PMC10307832

Tests used:
Assay in all cases: relative viability (nuclei count vs DMSO), 5 days (fraction); higher = more cells survive
[1] = compound: CNC(=O)c1ccccc1Sc1ccc2c(/C=C/c3ccccn3)n[nH]c2c1 [Axitinib] + Cc1nc(NC(=O)N2CCC[C@H]2C(N)=O)sc1-c1ccnc(C(C)(C)C(F)(F)F)c1 [Alpelisib] (partner 2 µM)
How it was run: (§1)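 Nuclei were stained with Hoechst during a one-step fixation (final 0.05% Triton X-100, 1% formaldehyde, 1 ug/ml Hoechst) carried out 5 days after dosing, then counted on 4× images. The cells, lung cancer lines in 1536-well plates, had been dosed by pin tool the day after seeding with one drug alone or a fixed anchor-drug dose plus five library-drug doses (not always all listed) in √10 steps. Relative viability is the nuclei count in treated wells divided by that in vehicle wells, and each value is the median of duplicate plates.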

[2] = compound: CC1=CC=C(C=C1)C(=O)CN2C3=C(CCCC3)SC2=N [Pifithrin_alpha] + CS(=O)(=O)N1CCN(Cc2cc3nc(-c4cccc5[nH]ncc45)nc(N4CCOCC4)c3s2)CC1 [Pictilisib] (partner 1 µM)
How it was run: as §1

[3] = compound: Nc1nc(Nc2ccc3c(c2)CC[C@@H](N2CCCC2)CC3)nn1-c1cc2c(nn1)-c1ccccc1CCC2 [Bemcentinib] + N=C(N)NC(=N)NCCc1ccccc1 [Phenformin] (partner 250 µM)
How it was run: as §1

[4] = compound: CC1=CC=C(C=C1)C(=O)CN2C3=C(CCCC3)SC2=N [Pifithrin_alpha] + CC(=O)Nc1cccc(-n2c(=O)n(C3CC3)c(=O)c3c(Nc4ccc(I)cc4F)n(C)c(=O)c(C)c32)c1 [Trametinib] (partner 0.02 µM)
How it was run: as §1

Cell Line | relative viability ([1]; first compound 0.005 µM) | relative viability ([1]; first compound 0.01581 µM) | relative viability ([1]; first compound 0.05 µM) | relative viability ([1]; first compound 0.1581 µM) | relative viability ([1]; first compound 0.5 µM) | relative viability ([2]; first compound 1 µM) | relative viability ([2]; first compound 3.162 µM) | relative viability ([2]; first compound 10 µM) | relative viability ([2]; first compound 31.62 µM) | relative viability ([2]; first compound 100 µM) | relative viability ([3]; first compound 0.04 µM) | relative viability ([3]; first compound 0.1265 µM) | relative viability ([3]; first compound 0.4 µM) | relative viability ([3]; first compound 1.265 µM) | relative viability ([3]; first compound 4 µM) | relative viability ([4]; first compound 1 µM) | relative viability ([4]; first compound 3.162 µM) | relative viability ([4]; first compound 10 µM) | relative viability ([4]; first compound 31.62 µM) | relative viability ([4]; first compound 100 µM)
201T | 1.01 | 0.959 | 0.947 | 0.987 | 0.972 | 0.603 | 0.525 | 0.52 | 0.53 | 0.551 | 0.417 | 0.504 | 0.48 | 0.454 | 0.455 | 0.752 | 0.616 | 0.61 | 0.529 | 0.518
A549 | 0.79 | 0.741 | 0.775 | 0.753 | 0.874 | 0.703 | 0.586 | 0.435 | 0.434 | 0.342 | 0.126 | 0.124 | 0.17 | 0.121 | 0.147 |  |  |  |  | 
A-427 | 1.05 | 1.1 | 1.08 | 1.05 | 1.09 | 0.722 | 0.629 | 0.666 | 0.522 | 0.657 | 0.305 | 0.308 | 0.332 | 0.337 | 0.258 | 0.682 | 0.727 | 0.688 | 0.6 | 0.552
ABC-1 | 1.16 | 1.06 | 0.945 | 1.07 | 1.54 | 0.273 | 0.745 | 0.735 | 0.429 | 0.437 | 0.191 | 0.267 | 0.23 | 0.253 | 0.239 |  |  |  |  | 
BEN | 0.993 | 1.04 | 0.928 | 1.04 | 0.908 | 0.445 | 0.576 | 0.64 | 0.618 | 0.543 | 0.242 | 0.289 | 0.269 | 0.255 | 0.295 | 1.13 | 0.993 | 1.12 | 1.14 | 1.29
CAL-12T | 1.35 | 1.38 | 1.01 | 1.26 | 1.32 | 0.415 | 0.385 | 0.348 | 0.347 | 0.331 | 0.492 | 0.632 | 0.611 | 0.579 | 0.601 | 0.295 | 0.331 | 0.274 |  | 0.268
COR-L23 | 0.77 | 0.857 | 0.78 | 0.83 | 1.06 | 0.736 | 0.75 | 0.731 |  | 0.695 | 0.425 | 0.44 | 0.449 | 0.465 | 0.493 | 0.517 | 0.709 | 0.638 |  | 0.539
COR-L 105 | 1.08 | 1.2 | 1.02 | 0.932 | 1.18 | 0.324 | 0.377 | 0.415 | 0.33 | 0.458 | 0.529 | 0.432 | 0.561 | 0.494 | 0.45 | 0.259 | 0.424 | 0.432 | 0.421 | 0.454
Calu-6 | 0.847 | 0.997 | 1.02 | 1.01 | 1.18 | 1 | 0.907 | 0.816 | 0.546 | 0.644 |  |  |  |  |  |  |  |  |  | 
ChaGo-K-1 |  |  |  |  |  | 0.431 | 0.653 | 0.631 | 0.473 | 0.559 | 0.486 | 0.544 | 0.517 | 0.473 | 0.442 | 0.889 | 0.936 | 0.889 | 0.589 | 0.862
EBC-1 | 0.904 | 0.863 | 0.806 | 0.738 | 1.07 | 0.261 | 0.224 | 0.237 | 0.198 | 0.214 |  |  |  |  |  |  |  |  |  | 
EKVX | 1.06 | 0.82 | 0.838 | 0.87 | 1 | 0.328 | 0.283 | 0.281 | 0.235 | 0.214 | 0.256 | 0.215 | 0.239 | 0.277 | 0.237 | 0.394 | 0.532 | 0.269 | 0.28 | 0.21
EMC-BAC-2 | 0.788 | 0.702 | 0.742 | 0.749 | 0.808 | 0.511 | 0.566 | 0.55 | 0.456 | 0.545 | 0.515 | 0.516 | 0.556 | 0.507 | 0.514 |  | 0.89 |  | 0.706 | 0.794
EPLC-272H | 1.11 | 0.868 | 0.949 | 0.884 | 0.915 |  | 0.319 | 0.35 | 0.255 | 0.248 | 0.372 | 0.273 | 0.27 | 0.296 | 0.352 |  | 0.282 | 0.281 | 0.284 | 0.268
H3255 | 0.648 | 0.611 | 0.632 | 0.724 | 0.702 | 0.432 | 0.612 | 0.497 | 0.35 | 0.491 | 0.383 | 0.318 | 0.354 | 0.418 | 0.361 | 0.578 | 0.831 | 0.546 | 0.421 | 0.442
HARA | 0.877 | 0.909 | 0.975 | 0.824 | 1.02 | 0.335 | 0.275 | 0.4 | 0.234 | 0.251 | 0.41 | 0.541 | 0.539 | 0.434 | 0.498 | 0.557 | 0.695 | 0.836 | 0.493 | 0.45
HCC-15 | 0.933 | 0.899 | 0.838 | 0.847 | 0.866 | 0.691 | 0.754 | 0.673 | 0.458 | 0.715 | 0.486 | 0.532 | 0.516 | 0.465 | 0.499 | 0.373 | 0.33 | 0.348 | 0.315 | 0.256
HCC-44 | 0.842 | 0.881 | 0.873 | 0.834 | 0.89 | 0.433 | 0.475 | 0.539 | 0.408 | 0.423 | 0.155 | 0.28 | 0.175 | 0.187 | 0.149 | 0.945 | 0.846 | 0.727 | 0.786 | 0.747
